Reference: patent publication US9266878B2, “Phosphatidylinositol 3-kinase inhibitors” (Gilead Calistoga LLC, priority 2012, dated 2016)

Key:
Experiment in all cases: Enzymatic activity of PI3K isoforms, TR-FRET assay (PIP3 formation)
Format in all cases: biochemical
[1] = biological target: PI3Kβ (Homo sapiens (Human), UniProt P42338); conditions: bound given in uM
Procedure, shortened: (§1)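 IC50 (nM) reflects inhibition of PIP3 formation by purified recombinant heterodimeric PI3K, measured as loss of TR-FRET signal. The read-out comes from competition between enzyme-made PIP3 and labelled PIP3 for binding to the GRP-1 pleckstrin homology domain.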

[2] = biological target: PI3Kγ (Homo sapiens (Human), UniProt P48736); conditions: bound given in uM
Procedure, shortened: as §1

[3] = biological target: PI3Kδ (Homo sapiens (Human), UniProt O00329); conditions: bound given in nM
Procedure, shortened: (§2)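 After 30 min at 25° C, reactions were quenched with 10 mM EDTA plus 10 nM labeled-PIP3 and 35 nM Europium-GRP-1, and TR-FRET was read (Ex 340, Em 615/665 nm). Enzymes were purified recombinant heterodimers; product PIP3 competes off the labeled tracer. Values given as IC50, nM.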

[4] = biological target: PI3Kα (Homo sapiens (Human), UniProt P42336); conditions: bound given in uM
Procedure, shortened: as §2

Chain of PI3Kδ (O00329 whole entry): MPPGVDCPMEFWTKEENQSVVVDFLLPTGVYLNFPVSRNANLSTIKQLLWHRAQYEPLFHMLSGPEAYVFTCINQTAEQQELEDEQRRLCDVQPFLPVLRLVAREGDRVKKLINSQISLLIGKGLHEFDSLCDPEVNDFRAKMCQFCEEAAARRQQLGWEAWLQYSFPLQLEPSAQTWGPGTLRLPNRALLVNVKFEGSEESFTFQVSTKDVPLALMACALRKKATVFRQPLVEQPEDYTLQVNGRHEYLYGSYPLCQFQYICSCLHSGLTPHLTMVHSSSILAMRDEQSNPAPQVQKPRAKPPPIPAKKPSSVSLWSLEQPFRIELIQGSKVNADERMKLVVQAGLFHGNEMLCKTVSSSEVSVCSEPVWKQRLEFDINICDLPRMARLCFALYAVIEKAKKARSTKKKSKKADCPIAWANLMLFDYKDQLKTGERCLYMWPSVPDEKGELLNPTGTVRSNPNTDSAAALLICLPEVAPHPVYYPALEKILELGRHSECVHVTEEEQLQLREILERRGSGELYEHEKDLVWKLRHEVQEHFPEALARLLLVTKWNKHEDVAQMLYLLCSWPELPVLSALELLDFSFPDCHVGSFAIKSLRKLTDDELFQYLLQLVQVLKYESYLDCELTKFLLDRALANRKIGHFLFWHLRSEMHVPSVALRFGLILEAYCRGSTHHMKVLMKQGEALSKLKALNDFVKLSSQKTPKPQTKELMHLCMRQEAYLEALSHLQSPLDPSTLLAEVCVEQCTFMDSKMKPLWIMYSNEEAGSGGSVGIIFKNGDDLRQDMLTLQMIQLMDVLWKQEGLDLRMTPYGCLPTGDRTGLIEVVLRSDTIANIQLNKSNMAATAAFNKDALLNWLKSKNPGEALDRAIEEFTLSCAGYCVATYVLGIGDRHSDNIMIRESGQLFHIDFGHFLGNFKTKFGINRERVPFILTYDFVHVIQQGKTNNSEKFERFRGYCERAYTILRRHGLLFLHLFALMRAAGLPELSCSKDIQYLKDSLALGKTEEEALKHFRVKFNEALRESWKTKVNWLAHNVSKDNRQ
Chain of PI3Kδ (P27986 whole entry partner): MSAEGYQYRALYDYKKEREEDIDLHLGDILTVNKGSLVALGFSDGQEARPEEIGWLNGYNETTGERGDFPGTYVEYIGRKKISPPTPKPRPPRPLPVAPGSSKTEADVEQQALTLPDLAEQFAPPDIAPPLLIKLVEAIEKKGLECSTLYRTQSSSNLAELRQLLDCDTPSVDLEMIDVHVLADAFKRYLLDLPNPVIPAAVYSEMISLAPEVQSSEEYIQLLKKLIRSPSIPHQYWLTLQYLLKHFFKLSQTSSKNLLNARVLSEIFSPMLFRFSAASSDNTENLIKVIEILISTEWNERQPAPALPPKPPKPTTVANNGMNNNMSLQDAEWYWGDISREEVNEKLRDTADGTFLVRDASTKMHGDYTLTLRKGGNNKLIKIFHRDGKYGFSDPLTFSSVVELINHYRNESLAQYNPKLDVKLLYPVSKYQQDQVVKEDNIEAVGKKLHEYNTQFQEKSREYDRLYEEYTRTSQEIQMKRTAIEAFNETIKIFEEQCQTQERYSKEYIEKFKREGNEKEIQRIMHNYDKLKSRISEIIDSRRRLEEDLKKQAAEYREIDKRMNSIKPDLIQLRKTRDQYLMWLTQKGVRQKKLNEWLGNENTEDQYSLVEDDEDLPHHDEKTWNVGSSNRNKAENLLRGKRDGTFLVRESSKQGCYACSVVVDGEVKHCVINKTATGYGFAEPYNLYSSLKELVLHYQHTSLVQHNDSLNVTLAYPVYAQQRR
Chain of PI3Kβ (P42338 whole entry, the tested form may be a part): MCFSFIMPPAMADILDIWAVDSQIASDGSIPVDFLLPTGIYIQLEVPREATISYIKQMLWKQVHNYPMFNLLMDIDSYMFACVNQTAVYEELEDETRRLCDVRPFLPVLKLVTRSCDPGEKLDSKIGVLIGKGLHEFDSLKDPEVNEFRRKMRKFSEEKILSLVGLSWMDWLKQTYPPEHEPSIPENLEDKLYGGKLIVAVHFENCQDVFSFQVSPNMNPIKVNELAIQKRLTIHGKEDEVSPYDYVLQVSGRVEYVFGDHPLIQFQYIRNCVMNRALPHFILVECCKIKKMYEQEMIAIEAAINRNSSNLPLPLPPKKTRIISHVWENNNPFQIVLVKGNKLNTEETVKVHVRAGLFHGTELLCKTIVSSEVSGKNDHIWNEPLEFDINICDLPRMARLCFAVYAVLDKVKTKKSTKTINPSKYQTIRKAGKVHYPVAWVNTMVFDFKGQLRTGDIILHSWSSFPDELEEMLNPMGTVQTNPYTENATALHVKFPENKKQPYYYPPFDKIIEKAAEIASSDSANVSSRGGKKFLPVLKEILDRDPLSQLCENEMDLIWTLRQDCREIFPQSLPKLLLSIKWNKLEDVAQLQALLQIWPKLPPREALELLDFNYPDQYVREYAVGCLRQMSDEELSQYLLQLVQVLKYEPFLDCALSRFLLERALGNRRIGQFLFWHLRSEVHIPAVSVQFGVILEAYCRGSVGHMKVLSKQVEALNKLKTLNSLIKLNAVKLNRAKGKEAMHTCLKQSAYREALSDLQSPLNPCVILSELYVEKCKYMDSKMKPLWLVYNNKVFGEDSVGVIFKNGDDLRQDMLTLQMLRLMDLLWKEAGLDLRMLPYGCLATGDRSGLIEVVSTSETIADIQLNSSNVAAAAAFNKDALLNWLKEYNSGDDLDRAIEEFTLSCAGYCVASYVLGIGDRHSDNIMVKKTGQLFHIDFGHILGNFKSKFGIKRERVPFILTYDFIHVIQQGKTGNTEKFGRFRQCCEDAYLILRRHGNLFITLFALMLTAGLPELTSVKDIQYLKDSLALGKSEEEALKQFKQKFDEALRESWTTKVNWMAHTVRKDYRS
Chain of PI3Kβ (P27986 whole entry partner, the tested form may be a part): as the sequence (P27986 whole entry partner) above
Chain of PI3Kγ (P48736 whole entry): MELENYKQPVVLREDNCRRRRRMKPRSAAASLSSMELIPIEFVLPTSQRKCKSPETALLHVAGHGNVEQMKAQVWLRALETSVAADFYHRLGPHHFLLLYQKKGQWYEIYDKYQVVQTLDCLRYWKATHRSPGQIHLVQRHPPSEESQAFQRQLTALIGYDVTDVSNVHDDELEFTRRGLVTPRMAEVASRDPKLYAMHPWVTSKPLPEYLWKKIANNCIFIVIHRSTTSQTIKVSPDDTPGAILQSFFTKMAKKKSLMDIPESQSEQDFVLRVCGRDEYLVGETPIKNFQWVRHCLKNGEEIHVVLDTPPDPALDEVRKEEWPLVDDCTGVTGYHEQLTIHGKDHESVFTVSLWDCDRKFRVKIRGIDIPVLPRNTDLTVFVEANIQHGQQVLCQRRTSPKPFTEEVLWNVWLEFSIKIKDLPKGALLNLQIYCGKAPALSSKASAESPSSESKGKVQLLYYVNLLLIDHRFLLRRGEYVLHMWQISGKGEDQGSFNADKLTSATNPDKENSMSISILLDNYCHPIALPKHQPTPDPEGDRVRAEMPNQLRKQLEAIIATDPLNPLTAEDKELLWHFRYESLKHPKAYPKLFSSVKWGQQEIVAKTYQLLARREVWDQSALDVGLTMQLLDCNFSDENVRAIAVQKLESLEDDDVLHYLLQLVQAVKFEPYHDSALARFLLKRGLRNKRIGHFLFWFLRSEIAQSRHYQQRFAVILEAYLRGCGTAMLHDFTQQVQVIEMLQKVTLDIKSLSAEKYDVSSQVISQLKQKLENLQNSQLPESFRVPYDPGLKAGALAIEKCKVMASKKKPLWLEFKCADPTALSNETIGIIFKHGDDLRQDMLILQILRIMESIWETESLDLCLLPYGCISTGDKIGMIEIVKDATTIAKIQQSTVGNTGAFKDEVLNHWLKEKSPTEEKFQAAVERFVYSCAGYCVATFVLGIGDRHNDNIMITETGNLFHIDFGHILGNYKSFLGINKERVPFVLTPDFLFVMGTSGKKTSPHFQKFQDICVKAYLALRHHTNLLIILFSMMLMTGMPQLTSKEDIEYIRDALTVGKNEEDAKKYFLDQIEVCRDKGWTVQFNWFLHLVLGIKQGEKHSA
Chain of PI3Kγ (Q8WYR1 whole entry partner): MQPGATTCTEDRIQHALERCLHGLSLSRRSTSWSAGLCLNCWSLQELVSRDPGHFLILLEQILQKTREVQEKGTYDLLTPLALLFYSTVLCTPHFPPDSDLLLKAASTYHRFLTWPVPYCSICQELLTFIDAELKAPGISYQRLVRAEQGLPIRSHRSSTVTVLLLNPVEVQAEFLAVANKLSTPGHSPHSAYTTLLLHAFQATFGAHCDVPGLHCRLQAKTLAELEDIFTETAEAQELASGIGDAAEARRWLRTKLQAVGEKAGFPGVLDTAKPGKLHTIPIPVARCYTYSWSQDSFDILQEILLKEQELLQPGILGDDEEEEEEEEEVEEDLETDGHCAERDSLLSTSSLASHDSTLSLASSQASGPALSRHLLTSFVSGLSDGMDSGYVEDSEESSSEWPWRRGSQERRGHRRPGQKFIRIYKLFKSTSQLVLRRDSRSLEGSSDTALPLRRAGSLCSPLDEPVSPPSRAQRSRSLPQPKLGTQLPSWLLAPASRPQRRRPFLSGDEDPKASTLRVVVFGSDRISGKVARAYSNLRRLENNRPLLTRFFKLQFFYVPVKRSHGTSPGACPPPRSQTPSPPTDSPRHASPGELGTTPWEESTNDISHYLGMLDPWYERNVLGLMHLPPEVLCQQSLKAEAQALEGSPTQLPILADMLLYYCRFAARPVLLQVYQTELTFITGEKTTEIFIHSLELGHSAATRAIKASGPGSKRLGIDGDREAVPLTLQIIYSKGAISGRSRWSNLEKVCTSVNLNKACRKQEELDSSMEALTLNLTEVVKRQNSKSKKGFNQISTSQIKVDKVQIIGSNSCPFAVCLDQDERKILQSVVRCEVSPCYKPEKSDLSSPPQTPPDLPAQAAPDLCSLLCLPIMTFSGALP

Row | SMILES | IC50 [1] | IC50 [2] | IC50 [3] | IC50 [4]
1 | CCCCc1cccc(-n2c([C@H](C)Nc3ncnc(N)c3C#Cc3ccc(F)cn3)nc3cccc(Cl)c3c2=O)c1 [Compound 57a, (S)-2-(1-((6-amino-5-((5-fluoropyridin-2-yl)ethynyl)pyrimidin-4-yl)amino)ethyl)-3-(3-butylphenyl)-5-chloroquinazolin-4(3H)-one] | > 1 µM | > 1 µM | < 100 nM | > 1 µM
2 | C[C@H](Nc1ncnc(N)c1C#Cc1ccc(F)cn1)c1nc2cccc(Cl)c2c(=O)n1-c1cccc(-c2ccccc2)c1 [Compound 60a, (S)-3-([1,1′-biphenyl]-3-yl)-2-(1-((6-amino-5-((5-fluoropyridin-2-yl)ethynyl)pyrimidin-4-yl)amino)ethyl)-5-chloroquinazolin-4(3H)-one] | > 1 µM | > 1 µM | < 100 nM | > 1 µM
3 | CCc1cccc(-n2c([C@H](C)Nc3ncnc(N)c3C#Cc3ccc(F)cn3)nc3cccc(Cl)c3c2=O)c1 [Compound 61a, (S)-2-(1-((6-amino-5-((5-fluoropyridin-2-yl)ethynyl)pyrimidin-4-yl)amino)ethyl)-5-chloro-3-(3-ethylphenyl)quinazolin-4(3H)-one] | > 1 µM | > 1 µM | < 100 nM | > 1 µM
4 | C[C@H](Nc1ncnc(N)c1C#Cc1cnccn1)c1nc2cccc(C(F)F)c2c(=O)n1-c1cc(F)cc(F)c1 [Compound 66a, (S)-2-(1-((6-amino-5-(pyrazin-2-ylethynyl)pyrimidin-4-yl)amino)ethyl)-5-(difluoromethyl)-3-(3,5-difluorophenyl)quinazolin-4(3H)-one] | > 1 µM | > 1 µM | < 100 nM | > 1 µM
5 | C[C@H](Nc1ncnc(N)c1C#Cc1ccc(F)cn1)c1nc2cccc(C(F)F)c2c(=O)n1-c1cccc(C#N)c1 [Compound 70a, (S)-3-(2-(1-((6-amino-5-((5-fluoropyridin-2-yl)ethynyl)pyrimidin-4-yl)amino)ethyl)-5-(difluoromethyl)-4-oxoquinazolin-3(4H)-yl)benzonitrile] | > 1 µM | > 1 µM | < 100 nM | > 1 µM
6 | C[C@H](Nc1ncnc(N)c1C#Cc1cnccn1)c1nc2cccc(C(F)F)c2c(=O)n1-c1cccc(C#N)c1 [Compound 71a, (S)-3-(2-(1-((6-amino-5-(pyrazin-2-ylethynyl)pyrimidin-4-yl)amino)ethyl)-5-(difluoromethyl)-4-oxoquinazolin-3(4H)-yl)benzonitrile] | > 1 µM | > 1 µM | < 100 nM | > 1 µM
7 | CC[C@H](Nc1ncnc(N)c1C#Cc1cnccn1)c1nc2cccc(C(F)F)c2c(=O)n1-c1cc(F)cc(F)c1 [Compound 74a, (S)-2-(1-((6-amino-5-(pyrazin-2-ylethynyl)pyrimidin-4-yl)amino)propyl)-5-(difluoromethyl)-3-(3,5-difluorophenyl)quinazolin-4(3H)-one] | > 1 µM | > 1 µM | < 100 nM | > 1 µM
8 | C[C@H](Nc1ncnc(N)c1C#Cc1cnccn1)c1nc2cccc(Cl)c2c(=O)n1-c1cc(F)cc(F)c1 [Compound 85a, (S)-2-(1-((6-amino-5-(pyrazin-2-ylethynyl)pyrimidin-4-yl)amino)ethyl)-5-chloro-3-(3,5-difluorophenyl)quinazolin-4(3H)-one] | > 1 µM | > 1 µM | < 100 nM | > 1 µM
9 | C[C@H](Nc1ncnc(N)c1C#Cc1ccc(F)cn1)c1nc2cccc(Cl)c2c(=O)n1-c1cccc(C#N)c1 [Compound 92a, (S)-3-(2-(1-((6-amino-5-((5-fluoropyridin-2-yl)ethynyl)pyrimidin-4-yl)amino)ethyl)-5-chloro-4-oxoquinazolin-3(4H)-yl)benzonitrile] | > 1 µM | > 1 µM | < 100 nM | > 1 µM
10 | C[C@H](Nc1ncnc(N)c1C#Cc1cnccn1)c1nc2cccc(Cl)c2c(=O)n1-c1cccc(C#N)c1 [Compound 93a, (S)-3-(2-(1-((6-amino-5-(pyrazin-2-ylethynyl)pyrimidin-4-yl)amino)ethyl)-5-chloro-4-oxoquinazolin-3(4H)-yl)benzonitrile] | > 1 µM | > 1 µM | < 100 nM | > 1 µM
11 | C[C@H](Nc1ncnc(N)c1C#Cc1ccc(F)cn1)c1nc2ccc(F)cc2c(=O)n1-c1cccc(C#N)c1 [Compound 94a, (S)-3-(2-(1-((6-amino-5-((5-fluoropyridin-2-yl)ethynyl)pyrimidin-4-yl)amino)ethyl)-6-fluoro-4-oxoquinazolin-3(4H)-yl)benzonitrile] | > 1 µM | > 1 µM | < 100 nM | > 1 µM
12 | C[C@H](Nc1ncnc(N)c1C#Cc1cnccn1)c1nc2ccc(F)cc2c(=O)n1-c1cccc(C#N)c1 [Compound 95a, (S)-3-(2-(1-((6-amino-5-(pyrazin-2-ylethynyl)pyrimidin-4-yl)amino)ethyl)-6-fluoro-4-oxoquinazolin-3(4H)-yl)benzonitrile] | > 1 µM | > 1 µM | < 100 nM | > 1 µM
13 | C[C@H](Nc1ncnc(N)c1C#Cc1ccc(F)cn1)c1nc2ccc(F)cc2c(=O)n1-c1cccc(Cl)c1 [Compound 96a, (S)-2-(1-((6-amino-5-((5-fluoropyridin-2-yl)ethynyl)pyrimidin-4-yl)amino)ethyl)-3-(3-chlorophenyl)-6-fluoroquinazolin-4(3H)-one] | > 1 µM | > 1 µM | < 100 nM | > 1 µM
14 | C[C@H](Nc1ncnc(N)c1C#Cc1cnccn1)c1nc2ccc(F)cc2c(=O)n1-c1cccc(Cl)c1 [Compound 97a, (S)-2-(1-((6-amino-5-(pyrazin-2-ylethynyl)pyrimidin-4-yl)amino)ethyl)-3-(3-chlorophenyl)-6-fluoroquinazolin-4(3H)-one] | > 1 µM | > 1 µM | < 100 nM | > 1 µM

Further lines, results first:

Row | IC50 [1] | IC50 [2] | IC50 [3] | IC50 [4] | SMILES
15 | > 1 µM | > 1 µM | < 100 nM | > 1 µM | COc1cc(F)cc(C#Cc2c(N)ncnc2NC(C)c2nc3c(F)ccc(F)c3c(=O)n2-c2ccccc2)c1 (centres unmarked) [Compound 63a, 2-(1-((6-amino-5-((3-fluoro-5-methoxyphenyl)ethynyl)pyrimidin-4-yl)amino)ethyl)-5,8-difluoro-3-phenylquinazolin-4(3H)-one]
16 | > 1 µM | > 1 µM | < 100 nM | > 1 µM | COc1cc(F)cc(C#Cc2c(N)ncnc2N[C@@H](C)c2nc3c(F)cccc3c(=O)n2-c2ccccc2)c1 [Compound 64a, (S)-2-(1-((6-amino-5-((3-fluoro-5-methoxyphenyl)ethynyl)pyrimidin-4-yl)amino)ethyl)-8-fluoro-3-phenylquinazolin-4(3H)-one]
17 | > 1 µM | > 1 µM | < 100 nM | > 1 µM | COc1cc(F)cc(C#Cc2c(N)ncnc2N[C@@H](C)c2nc3cccc(F)c3c(=O)n2-c2ccccc2)c1 [Compound 65a, (S)-2-(1-((6-amino-5-((3-fluoro-5-methoxyphenyl)ethynyl)pyrimidin-4-yl)amino)ethyl)-5-fluoro-3-phenylquinazolin-4(3H)-one]
18 | > 1 µM | > 1 µM | < 100 nM | > 1 µM | C[C@H](Nc1ncnc(N)c1C#Cc1ccc(F)cn1)c1nc2cccc(C(F)(F)F)c2c(=O)n1-c1ccccc1 [Compound 68a, (S)-2-(1-((6-amino-5-((5-fluoropyridin-2-yl)ethynyl)pyrimidin-4-yl)amino)ethyl)-3-phenyl-5-(trifluoromethyl)quinazolin-4(3H)-one]
19 | > 1 µM | > 1 µM | < 100 nM | > 1 µM | Cc1ccc(F)c2nc([C@H](C)Nc3ncnc(N)c3C#Cc3ccc(F)cn3)n(-c3cccc(C#N)c3)c(=O)c12 [Compound 72a, (S)-3-(2-(1-((6-amino-5-((5-fluoropyridin-2-yl)ethynyl)pyrimidin-4-yl)amino)ethyl)-8-fluoro-5-methyl-4-oxoquinazolin-3(4H)-yl)benzonitrile]
20 | > 1 µM | > 1 µM | < 100 nM | > 1 µM | C[C@H](Nc1ncnc(N)c1C#Cc1ccc(F)cn1)c1nc2cccc(C(F)F)c2c(=O)n1-c1cc(F)cc(F)c1 [Compound 77a, (S)-2-(1-((6-amino-5-((5-fluoropyridin-2-yl)ethynyl)pyrimidin-4-yl)amino)ethyl)-5-(difluoromethyl)-3-(3,5-difluorophenyl)quinazolin-4(3H)-one]
21 | > 1 µM | > 1 µM | < 100 nM | > 1 µM | C[C@H](Nc1ncnc(N)c1C#Cc1ncc(F)cc1F)c1nc2cccc(Cl)c2c(=O)n1-c1ccccc1 [Compound 82a, (S)-2-(1-((6-amino-5-((3,5-difluoropyridin-2-yl)ethynyl)pyrimidin-4-yl)amino)ethyl)-5-chloro-3-phenylquinazolin-4(3H)-one]
22 | > 1 µM | > 1 µM | < 100 nM | > 1 µM | C[C@H](Nc1ncnc(N)c1C#Cc1cnccn1)c1nc2cccc(F)c2c(=O)n1-c1cc(F)cc(F)c1 [Compound 87a, (S)-2-(1-((6-amino-5-(pyrazin-2-ylethynyl)pyrimidin-4-yl)amino)ethyl)-3-(3,5-difluorophenyl)-5-fluoroquinazolin-4(3H)-one]
23 | > 1 µM | > 1 µM | < 100 nM | > 1 µM | C[C@H](Nc1ncnc(N)c1C#Cc1ccc(F)cn1)c1nc2ccc(F)cc2c(=O)n1-c1ccccc1 [Compound 90a, (S)-2-(1-((6-amino-5-((5-fluoropyridin-2-yl)ethynyl)pyrimidin-4-yl)amino)ethyl)-6-fluoro-3-phenylquinazolin-4(3H)-one]
